Source: patent US20180289008A1, “METHODS FOR WILDFIRE CONTROL, INVASIVE PLANT CONTROL, AND RESIDUAL CONTROL OF INVASIVE PLANTS” (priority 2017, published 2018)
“And” between values parts separate entries of the source, which are not always exact repeats. Equal values may be shown once. Read-outs that look alike come from different tables or passages of the source.

Legend:
[1] = system: Common mullein (Verbascum thapsus); test: Greenhouse pre-emergence dose-response bioassay (GR50); type: in vivo
Description: (§1) A greenhouse experiment was designed to determine if the extended control of Dalmatian toadflax and downy brome provided by indaziflam in the field was due to increased residual seedling control. This experiment was designed to compare indaziflam's pre-emergence efficacy to the currently recommended herbicides (aminocyclopyrachlor and aminopyralid) for annual, biennial, and perennial weed control in non-crop areas. […] This allows for direct comparisons between herbicides on an active ingredient basis for aminopyralid, aminocyclopyrachlor, and indaziflam.
(§2) For the greenhouse bioassay, seeds were planted at a constant depth of 0.5 cm in 13- by 9- by 6-cm plastic containers, filled with an Otero sandy clay loam field soil (Coarse-loamy, mixed (calcareous), mesic Aridic Ustorthents) with 3.9% OM and pH 7.7. Seeding densities were adjusted based on germinability to reach a target density of 40 plants/pot. Plants were maintained in a greenhouse with a 25/20° C. day/night temperature with natural light supplemented with high-intensity discharge lamps to give a 15-h photoperiod. Plants were sub-irrigated as needed and misted overhead daily to reduce soil crusting.
(§3) The greenhouse experiment was a completely randomized design with a factorial of seven herbicide rates and a non-treated control with three replicates per treatment. The experiments were conducted at two different times. A preliminary greenhouse study was conducted for each herbicide and species to determine a range of doses that would best fit a logistic regression. It is not unusual for both pre-emergence and post-emergence herbicides to provide control at lower than labeled rates, e.g., 0.5-560 g ai ha^−1 (aminocyclopyrachlor), 0.9-224 g ai ha^−1 (aminopyralid), and 0.05-11.7 g ai ha^−1 (indaziflam) in the greenhouse with ideal environmental conditions, so it was not surprising that herbicide doses for the regression analysis were much lower than recommended field use rates. Herbicides were applied pre-emergence using a Generation III research track sprayer (DeVries Manufacturing, Hollandale, Minn.) equipped with a TeeJet 8002 EVS flat-fan spray nozzle (TeeJet Spraying Systems Co., Wheaton, Ill.) at 187 L·ha-1 at 172 kPa.
(§4) Plants were harvested at the soil surface approximately 4 to 5 week-after-treatment (WAT) depending on the growth stage of each species. Weights were recorded after samples were dried for 5 days at 60° C. Percent dry weight reduction was calculated relative to the non-treated control plants for each treatment.
(§5) Data from the greenhouse dose-response experiment were first analyzed using the PROC MIXED method in SAS 9.3 with treatment as a fixed effect and experiment and replicate as random effects (SAS Institute 2010). Based on a non-significant homogeneity of variance (ANOVA) and experiment-by-herbicide rate interaction, results from the repeated experiments were pooled. The treatment effect was significant, therefore, nonlinear regression in Graphpad Prism 7.00 (GraphPad Software, La Jolla Calif. USA) was used to describe the response of the nine weed species to aminocyclopyrachlor, aminopyralid, and indaziflam. The herbicide concentrations resulting in 50% reduction in plant biomass (GR50) compared to the non-treated control were determined for each invasive weed species using four-parameter log-logistic regression. The equation used to regress herbicide concentration with percent reduction in plant dry biomass as compared to the non-treated control was:
(§6) where C and D represent the lower and upper limits of the dose-response curve, respectively, and b represents the slope of the best-fitting curve through the GR50 value. For curve fitting and GR50 estimation, the model was constrained to a maximum of 100 and minimum of 0. Mean separation of herbicide GR50 values were analyzed by Fisher's Protected LSD test at the 5% level of probability. […]

[2] = system: Common teasel (Dipsacus fullonum); test: as above; type: in vivo
Description: as §1, §2, §3, §4, §5, §6

[3] = system: Curly dock (Rumex crispus); test: as above; type: in vivo
Description: as §1, §2, §3, §4, §5, §6

[4] = system: Dalmatian toadflax (Linaria dalmatica); test: as above; type: in vivo
Description: as §1, §2, §3, §4, §5, §6

[5] = system: Diffuse knapweed (Centaurea diffusa); test: as above; type: in vivo
Description: as §1, §2, §3, §4, §5, §6

[6] = system: Halogeton (Halogeton glomeratus); test: as above; type: in vivo
Description: as §1, §2, §3, §4, §5, §6

[7] = system: Marestail (Conyza Canadensis); test: as above; type: in vivo
Description: as §1, §2, §3, §4, §5, §6

[8] = system: Musk thistle (Carduus nutans); test: as above; type: in vivo
Description: as §1, §2, §3, §4, §5, §6

[9] = system: downy brome (Bromus tectorum); test: as above; type: in vivo
Description: as §1, §2, §3, §4, §5, §6

[10] = system: all nine weed species; test: Greenhouse pre-emergence dose-response bioassay, across all nine weed species; type: in vivo; conditions: averaging across all nine weed species
Description: A greenhouse experiment was designed to determine if the extended control of Dalmatian toadflax and downy brome provided by indaziflam in the field was due to increased residual seedling control. This experiment was designed to compare indaziflam's pre-emergence efficacy to the currently recommended herbicides (aminocyclopyrachlor and aminopyralid) for annual, biennial, and perennial weed control in non-crop areas. […] This allows for direct comparisons between herbicides on an active ingredient basis for aminopyralid, aminocyclopyrachlor, and indaziflam. […]
as §4
Data from the greenhouse dose-response experiment were first analyzed using the PROC MIXED method in SAS 9.3 with treatment as a fixed effect and experiment and replicate as random effects (SAS Institute 2010). […] The herbicide concentrations resulting in 50% reduction in plant biomass (GR50) compared to the non-treated control were determined for each invasive weed species using four-parameter log-logistic regression. […]

[11] = system: downy brome, common mullein, Canada thistle, teasel, houndstongue, Scotch thistle, diffuse knapweed, field bindweed; test: Seedling control of invasive weeds versus untreated (FIG. 4A-4D); conditions: in vivo
[12] = average; cited from earlier work

For `Cc1ccc2c(c1)[C@H](Nc1nc(N)nc(C(C)F)n1)[C@@H](C)C2` (mixture of isomers) [Indaziflam, N2-[(1R,2S)-2,3-dihydro-2,6-dimethyl-1H-inden-1-yl]-6-[(1RS)-1-fluoroethyl]-1,3,5-triazine-2,4-diamine], the “GR50 ratio Aminocyclopyrachlor/Indaziflam” value [1] was 44.57, the “GR50 ratio Aminopyralid/Indaziflam” value [1] was 106 and 106.43 and the “GR50 (herbicide dose resulting in 50% dry biomass reduction)” value ([1]; pre-emergence) was 0.07 a g ai ha^−1. For the same compound, the “GR50 ratio Aminocyclopyrachlor/Indaziflam” value [2] was 5.18, the “GR50 ratio Aminopyralid/Indaziflam” value [2] was 0.56 and the “GR50 (herbicide dose resulting in 50% dry biomass reduction)” value ([2]; pre-emergence) was 1.33 b g ai ha^−1. For the same compound, the “GR50 ratio Aminocyclopyrachlor/Indaziflam” value [3] was 19.36, the “GR50 ratio Aminopyralid/Indaziflam” value [3] was 1.14 and the “GR50 (herbicide dose resulting in 50% dry biomass reduction)” value ([3]; pre-emergence) was 1.10 a g ai ha^−1. For the same compound, the “GR50 ratio Aminocyclopyrachlor/Indaziflam” value [4] was 19.33, the “GR50 ratio Aminopyralid/Indaziflam” value [4] was 246.67 and the “GR50 ratio Aminocyclopyrachlor/Indaziflam” value ([4]; listed as indaziflam) was 19. For the same compound, the “GR50 ratio Aminopyralid/Indaziflam” value ([4]; listed as indaziflam) was 247, the “GR50 (herbicide dose resulting in 50% dry biomass reduction)” value ([4]; pre-emergence) was 0.06 a g ai ha^−1 and the “GR50 ratio Aminocyclopyrachlor/Indaziflam” value [5] was 10.69. For the same compound, the “GR50 ratio Aminopyralid/Indaziflam” value [5] was 4 and 4.31, the “GR50 (herbicide dose resulting in 50% dry biomass reduction)” value ([5]; pre-emergence) was 0.58 a g ai ha^−1 and the “GR50 ratio Aminocyclopyrachlor/Indaziflam” value [6] was 2.89. For the same compound, the “GR50 ratio Aminopyralid/Indaziflam” value [6] was 9 and 8.64, the “GR50 (herbicide dose resulting in 50% dry biomass reduction)” value ([6]; pre-emergence) was 0.36 a g ai ha^−1 and the “GR50 ratio Aminocyclopyrachlor/Indaziflam” value [7] was 12.29. The “GR50 ratio Aminopyralid/Indaziflam” value [7] was 5 and 4.71, the “GR50 (herbicide dose resulting in 50% dry biomass reduction)” value ([7]; pre-emergence) was 0.17 a g ai ha^−1 and the “GR50 ratio Aminocyclopyrachlor/Indaziflam” value [8] was 3.79. The “GR50 ratio Aminopyralid/Indaziflam” value [8] was 0.94, the “GR50 (herbicide dose resulting in 50% dry biomass reduction)” value ([8]; pre-emergence) was 0.33 a g ai ha^−1 and the “GR50 ratio Aminocyclopyrachlor/Indaziflam” value [9] was 144.62. For the same compound, the “GR50 ratio Aminopyralid/Indaziflam” value [9] was 98.72, the “GR50 ratio Aminocyclopyrachlor/Indaziflam” value ([9]; listed as indaziflam) was 125 and the “GR50 ratio Aminopyralid/Indaziflam” value ([9]; listed as indaziflam) was 99. The “GR50 (herbicide dose resulting in 50% dry biomass reduction)” value ([9]; pre-emergence) was 0.39 a g ai ha^−1, the “times more active than aminocyclopyrachlor” value [10] was 29 and the “times more active than aminopyralid” value [10] was 52. The “seedling control of invasive weeds compared with the untreated (FIG. 4A-4D)” value [11] was “improved seedling control of invasive weeds” and the water solubility [12] was 3.6 µg/mL.
